From patent US20260287592A1, “ANALYSIS METHOD AND ANALYSIS SYSTEM” (priority 2023, published 2026) come the findings set out here.

This test deals with HER3. Conditions: Type3: SN-38 0.01 μM, gefitinib 0.00 μM; SKBR-3 cells, 24 hours; anti-HER3 staining.

In the case of `CCc1c2c(nc3ccc(O)cc13)-c1cc3c(c(=O)n1C2)COC(=O)[C@]3(O)CC` [SN-38, 7-ethyl-10-hydroxycamptothecin], the “AVERAGE VALUE OF 10 WELLS FOR NUMBER OF BRIGHT SPOTS PER CELL” value turned out to be 12.
